Experimental data reported in patent US20030060438A1, “Oligonucleotides and other modulators of the NK-1 receptor pathway and therapeutic uses thereof” (priority 2000, published 2003).
Entries after “also recorded” stand apart in the source; their conditions may differ.

Assays:
Assay type in all cases: in vivo, rat
NK-1 receptor [1] = test: CFA arthritis model, collagen breakdown products in plasma, systemic oligonucleotide; conditions: days 3 and 18 following CFA injection; 300 micro grams/kg, Q12 h, intraperitoneal
Protocol: Complete Freund's Adjuvant (CFA) was injected into the ankle joint of the rat and the levels of collagen breakdown products were assessed on days 3 and 18 following CFA injection. This was accomplished by measuring collagen degradation in the plasma of blood samples taken from the tail vein of rats while lightly anesthetized with halothane anesthesia. Antisense (AS) oligonucleotide (300 micro grams/kg, Q12 h, intraperitoneal) or saline was administered for 2 days prior to CFA injection and for the subsequent 18 days. […] (Pervious experiments have identified that the levels of collagen breakdown products are maximal at day 3-5 after CFA injection). Statistical analysis was performed using an unpaired t-test.

NK-1 receptor [2] = test: Capsaicin test, nociceptive behaviour after plantar injection, intrathecal oligonucleotide; conditions: intrathecal continuous infusion 2 micro grams/microlitres/h for 7 days; vs ACSF or MIS
Source text: The effect of intrathecal administration of NK-1 receptor antisense oligonucleotide on the nociceptive responses induced by capsaicin is shown in FIG. 2. This test consists of injecting a dilute solution of the active ingredient of hot peppers, capsaicin subcutaneously in the plantar surface of the rat hind paw. Capsaicin, C18H27NO3, is a known painful stimulus, especially of c-fibers, which are associated with substance P.
Capsaicin produces nociceptive (pain) behaviors over a period of about 5 minutes. The index of nociceptive behavior was assessed based a weighted pain intensity scale, where the animal is given a value of 0 for showing no signs of favoring of the injected paw, 1—favoring of hind paw such that it is resting lightly on the floor, 2—elevation of hind paw, 3—licking or vigorously shaking the hind paw. The numerical ratings were calculated by multiplying the amount of time the rats spent in each category by the weighted factor indicated above. This was expressed by the following formula: (time spent in category 0*0+time spent in category 1*1+time spent in category 2*2+time spent in category 3*3)/180 seconds. Oligonucleotides or ASCF control (artificial cerebral spinal fluid) were administered for 7 days prior to testing by continuous infusion (2 micro grams/microlitres/h) via Alzet™ minipumps attached to intrathecal catheters for spinal delivery. […]

NK-1 receptor [3] = test: Zymosan model of inflammatory bowel disease, Evans blue plasma extravasation of the colon; conditions: 300 micro grams/kg, Q12 h, intraperitoneal for 6 days prior to rectal zymosan; Evans blue three hours after zymosan
Protocol: Inflammatory bowel disease (IBD) is a generic term used to describe major clinical entities including Crohn's disease and ulcerative colitis. IBD was simulated by rectal administration of zymosan, a complement-activating substance. Antisense (AS) oligonucleotide (300 micro grams/kg, Q12 h, intraperitoneal) or saline was administered for 6 days prior to zymosan administration. Three hours after administration of zymosan, rats are injected with Evans blue dye which enables the assessment of plasma extravasation of the colon (degree of inflammation). […] Statistical analysis was performed using an unpaired t-test.

NK-1 receptor [4] = test: CFA ankle joint arthritis model, ankle circumference, intrathecal oligonucleotide; conditions: intrathecal 1 micro grams/microlitres/h from 48 h prior to CFA injection; vs ACSF or MIS
Protocol: Complete Freund's Adjuvant (CFA) injection into the ankle joint of the rat produces two responses, an inflammatory response that begins within 24 hours and lasts approximately one week, and a later inflammatory response combined with symptoms modelling arthritis. Oligonucleotides or ASCF control (artificial cerebral spinal fluid) was administered for 48 h prior to CFA injection and continuously for the testing days (1 micro grams/microlitres/h) via Alzet® minipumps attached to intrathecal catheters for spinal delivery. […] Statistical analysis was performed using a one way ANOVA and post hoc analysis using the Dunnett's test.

NK-1 receptor [5] = test: CFA ankle joint arthritis model, ankle circumference, systemic oligonucleotide; conditions: 300 micro grams/kg, Q12 h, intraperitoneal from 2 days prior to CFA
Protocol: Complete Freund's Adjuvant (CFA) injection (13.6 micro grams/25 microlitres) into the ankle joint of the rat produces two responses, an inflammatory response that begins within 24 hours and lasts approximately one week, and a later inflammatory response combined with symptoms modeling arthritis. Antisense (AS) oligonucleotide (300 micro grams/kg, Q12 h, intraperitoneal) or saline was administered for 2 days prior to CFA injection and throughout the time course of testing. In control animals CFA induces two phases of response as assessed by ankle circumference; the first is maximal at 48 h after injection and the second at day 18. […] Statistical analysis was performed using a two way ANOVA and post hoc analysis using the tukey's test.

NK-1 receptor [6] = test: Formalin test, intrathecal oligonucleotide
Protocol: The formalin test is similar in some ways to the capsaicin test, in that a noxious chemical is injected under the skin. In the case of formalin, however, this produces nociceptive behavior lasting up to one hour, and thus represents a longer-term tonic pain. The pain score was determined using the same parameters outlined above for the capsaicin test. Oligonucleotides or ASCF control (artificial cerebral spinal fluid) were administered for 7 days prior to testing by continuous infusion (1 micro grams/microlitres/h) via Alzet® minipumps attached to intrathecal catheters for spinal delivery. […] Statistical analysis was performed by a two way ANOVA with time and treatment as independent measures. Time: F(9,44)=8.264, p<0.05, Treatment: F(9,44)=7.254, p<0.05.
Antisense (AS) oligonucleotide or ASCF control (artificial cerebral spinal fluid) was administered for 7 days prior to testing by continuous infusion (0.45 micro grams/microlitres/h) via Alzet® minipumps attached to intrathecal catheters for spinal delivery. […] Statistical analysis was performed by a two way ANOVA with time and treatment as independent measures. Time: F(9,17)=7.985, p<0.05, Treatment: F(9,17)=2.541, p>0.05.

## 5′gac gtt atc cat ttt ggg g3′ (antisense GACGTTATCCATTTTGGGG; listed as DNA, chemistry not fully specified) [NK-1 receptor antisense oligonucleotide used in all experiments]
NK-1 receptor [1]
  collagen breakdown products in plasma compared to saline controls: significant attenuation
NK-1 receptor [2]
  capsaicin-induced nociceptive behavior (weighted pain score): less time spent in nociceptive behavior
NK-1 receptor [3]
  zymosan-induced plasma extravasation of the colon: significantly lower
NK-1 receptor [4]
  magnitude of inflammation, measured as ankle circumference: less
NK-1 receptor [5]; first phase maximal at 48 h
  magnitude of inflammation, measured as ankle circumference, first phase: less
NK-1 receptor [5]; second phase maximal at day 18
  magnitude of inflammation, measured as ankle circumference, second phase: less
NK-1 receptor [6]; intrathecal continuous infusion 0.45 micro grams/microlitres/h for 7 days prior to testing
  formalin-induced nociceptive responses, lower dose: without effect; also recorded: no attenuation
NK-1 receptor [6]; intrathecal continuous infusion 1 micro grams/microlitres/h for 7 days prior to testing
  formalin-induced nociceptive scores: nociceptive scores are less
